Drawing on PubChem BioAssay AID256 (DTP/NCI, 2004), this text covers T/C for 22 compounds.

Where “and” joins values, the source holds several entries; their conditions need not be identical. Equal values may be shown once. Toxic doses and inconclusive results are not listed.

The assay relates to CD2F1 mice, L1210 leukemia ip, survival T/C. Nature of the assay: NCI In Vivo Anticancer Drug Screen. Data for tumor model L1210 Leukemia (intraperitoneal) in CD2F1 (CDF1) mice. The following applies: higher = longer survival. In short, it runs like this:
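Each value reflects a quotient of treated over vehicle control outcomes in mice with a transplanted tumor.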

Setting [1] is: endpoint: mean survival time, dose: 50.0 mg/kg/injection, schedule: Q01DX009 (ip), vehicle: saline with Tween-80.
Setting [2] is: endpoint: mean survival time, dose: 100.0 mg/kg/injection, schedule: Q01DX009 (ip), vehicle: saline with Tween-80.
[3] abbreviates: endpoint: mean survival time, dose: 200.0 mg/kg/injection, schedule: Q01DX009 (ip), vehicle: saline with Tween-80.
The mark [4] stands for this setting: endpoint: mean survival time, dose: 100.0 mg/kg/injection, schedule: Q04DX003 (ip), vehicle: saline.
The mark [5] stands for this setting: endpoint: mean survival time, dose: 200.0 mg/kg/injection, schedule: Q04DX003 (ip), vehicle: saline.
[6] abbreviates: endpoint: mean survival time, dose: 400.0 mg/kg/injection, schedule: Q04DX003 (ip), vehicle: saline.
The mark [7] stands for this setting: endpoint: mean survival time, dose: 100.0 mg/kg/injection, schedule: Q04DX003 (ip), vehicle: saline with Tween-80.
Setting [8] is: endpoint: mean survival time, dose: 200.0 mg/kg/injection, schedule: Q04DX003 (ip), vehicle: saline with Tween-80.
Setting [9] is: endpoint: mean survival time, dose: 400.0 mg/kg/injection, schedule: Q04DX003 (ip), vehicle: saline with Tween-80.

Consider `c1ccc([P+](c2ccccc2)(c2ccccc2)c2ccccc2)cc1`, for which the T/C by setting is: (endpoint: mean survival time, dose: 0.63 mg/kg/injection, schedule: Q01DX009 (ip), vehicle: saline) 108 % of control; (endpoint: mean survival time, dose: 1.25 mg/kg/injection, schedule: Q01DX009 (ip), vehicle: saline) 111 % of control; (endpoint: mean survival time, dose: 2.5 mg/kg/injection, schedule: Q01DX009 (ip), vehicle: saline) 117 % of control; (endpoint: mean survival time, dose: 5.0 mg/kg/injection, schedule: Q01DX009 (ip), vehicle: saline) 122 % of control.

As for `C=C1CC(C)(Cn2cnc3c(N)ncnc32)OC1=O` (stereo unspecified), the T/C was 104 % of control (endpoint: median survival time, dose: 6.13 mg/kg/injection, schedule: Q01DX005 (ip), vehicle: water); 101 % of control (endpoint: median survival time, dose: 12.25 mg/kg/injection, schedule: Q01DX005 (ip), vehicle: water); 103 % of control (endpoint: median survival time, dose: 24.5 mg/kg/injection, schedule: Q01DX005 (ip), vehicle: water); 101 % of control (endpoint: median survival time, dose: 49.0 mg/kg/injection, schedule: Q01DX005 (ip), vehicle: water).

`CC1=NCCc2ccccc21`: the T/C (endpoint: mean survival time, dose: 12.5 mg/kg/injection, schedule: Q04DX003 (ip), vehicle: saline) is 102 % of control and the T/C (endpoint: mean survival time, dose: 25.0 mg/kg/injection, schedule: Q04DX003 (ip), vehicle: saline) is 93 % of control.

Take `N#Cc1nc2c(n(O)c1=N)CCC/C2=N\O`: the T/C by setting is: (endpoint: mean survival time, dose: 100.0 mg/kg/injection, schedule: Q04DX003 (ip), vehicle: Klucel (hydroxypropylcellulose) (HPC)) 98 % of control; (endpoint: mean survival time, dose: 200.0 mg/kg/injection, schedule: Q04DX003 (ip), vehicle: Klucel (hydroxypropylcellulose) (HPC)) 98 % of control; (endpoint: mean survival time, dose: 400.0 mg/kg/injection, schedule: Q04DX003 (ip), vehicle: Klucel (hydroxypropylcellulose) (HPC)) 91 % of control.

As for `N=C(N)c1ccc(NC(=O)c2ccc(C(=O)Nc3ccc(C(=N)N)cc3)c(N)c2)cc1`, the T/C was 101 % of control and 110 % of control (endpoint: median survival time, dose: 12.5 mg/kg/injection, schedule: Q01DX009 (ip), vehicle: saline with Tween-80); 102 % of control and 112 % of control (endpoint: median survival time, dose: 25.0 mg/kg/injection, schedule: Q01DX009 (ip), vehicle: saline with Tween-80); 119 % of control and 103 % of control (endpoint: median survival time, dose: 50.0 mg/kg/injection, schedule: Q01DX009 (ip), vehicle: saline with Tween-80); 121 % of control and 96 % of control and 112 % of control (endpoint: median survival time, dose: 100.0 mg/kg/injection, schedule: Q01DX009 (ip), vehicle: saline with Tween-80); 107 % of control (endpoint: median survival time, dose: 200.0 mg/kg/injection, schedule: Q01DX009 (ip), vehicle: saline with Tween-80).

`CC(C)(C)COC(=S)Oc1ccc(C(C)(C)C)cc1`: the T/C is 89 % of control (endpoint: mean survival time, dose: 100.0 mg/kg/injection, schedule: Q04DX002 (ip), vehicle: saline with Tween-80); 104 % of control (endpoint: mean survival time, dose: 200.0 mg/kg/injection, schedule: Q04DX002 (ip), vehicle: saline with Tween-80); 100 % of control (endpoint: mean survival time, dose: 400.0 mg/kg/injection, schedule: Q04DX002 (ip), vehicle: saline with Tween-80).

For the compound `O=C(CCN1CC1)Nc1cccc(NC(=O)CCN2CC2)c1`, the T/C by setting is: (endpoint: mean survival time, dose: 2.5 mg/kg/injection, schedule: Q01DX009 (ip), vehicle: Klucel (hydroxypropylcellulose) (HPC)) 118 % of control; (endpoint: mean survival time, dose: 4.0 mg/kg/injection, schedule: Q01DX009 (ip), vehicle: Klucel (hydroxypropylcellulose) (HPC)) 112 % of control; (endpoint: mean survival time, dose: 10.0 mg/kg/injection, schedule: Q01DX009 (ip), vehicle: Klucel (hydroxypropylcellulose) (HPC)) 156 % of control and 165 % of control; (endpoint: mean survival time, dose: 15.0 mg/kg/injection, schedule: Q01DX009 (ip), vehicle: Klucel (hydroxypropylcellulose) (HPC)) 108 % of control; (endpoint: mean survival time, dose: 20.0 mg/kg/injection, schedule: Q01DX009 (ip), vehicle: Klucel (hydroxypropylcellulose) (HPC)) 96 % of control and 104 % of control.

Turning to `C(=C/C1CCCCC1)/C=C/C1CCCCC1`, the T/C is, setting by setting: under setting [1], 103 % of control; under setting [2], 92 % of control; under setting [3], 107 % of control.

In the case of `CC(=C(C#N)C#N)c1ccccc1`, the T/C is 92 % of control (endpoint: mean survival time, dose: 12.5 mg/kg/injection, schedule: Q01DX009 (ip), vehicle: saline with Tween-80); 89 % of control (endpoint: mean survival time, dose: 25.0 mg/kg/injection, schedule: Q01DX009 (ip), vehicle: saline with Tween-80); 87 % of control under setting [1].

For `CCCC[N+](CCCC)(CCCC)CCCC.[O-][PH+](O)O[PH+]([O-])O.[O-][PH+](O)O[PH+]([O-])O.[O-][PH+](O)O[PH+]([O-])O.[O-][PH+](O)O[PH+]([O-])O.[Pt+2].[Pt+2]`, the T/C is, setting by setting: (endpoint: median survival time, dose: 10.0 mg/kg/injection, schedule: Q04DX003 (ip), vehicle: water) 100 % of control; (endpoint: median survival time, dose: 40.0 mg/kg/injection, schedule: Q04DX003 (ip), vehicle: water) 105 % of control.

In the case of `O=S(=O)(/C=C(/Br)c1ccccc1)c1ccccc1`, the T/C by setting is: (endpoint: mean survival time, dose: 100.0 mg/kg/injection, schedule: Q01DX009 (ip), vehicle: saline) 96 % of control; under setting [4], 100 % of control; (endpoint: mean survival time, dose: 200.0 mg/kg/injection, schedule: Q01DX009 (ip), vehicle: saline) 91 % of control; under setting [5], 100 % of control; (endpoint: mean survival time, dose: 400.0 mg/kg/injection, schedule: Q01DX009 (ip), vehicle: saline) 90 % of control; under setting [6], 100 % of control.

For the compound `CCCCCCCCCCCC(=O)[O][Pb]([CH2]C)([CH2]C)[CH2]C`, the T/C (endpoint: mean survival time, dose: 3.13 mg/kg/injection, schedule: Q01DX009 (ip), vehicle: saline with Tween-80) was 87 % of control and the T/C (endpoint: mean survival time, dose: 6.25 mg/kg/injection, schedule: Q01DX009 (ip), vehicle: saline with Tween-80) is 104 % of control.

`Cc1nc(N)[nH]c(=O)c1CCS`: the T/C (endpoint: mean survival time, dose: 100.0 mg/kg/injection, schedule: Q01DX001 (ip), vehicle: saline) was 97 % of control and the T/C (endpoint: mean survival time, dose: 200.0 mg/kg/injection, schedule: Q01DX001 (ip), vehicle: saline) was 100 % of control.

For `O=[N+]([O-])c1ccc(N/N=C(\CO)c2ccccc2)c([N+](=O)[O-])c1`, the T/C is, setting by setting: under setting [4], 109 % of control; under setting [5], 97 % of control; under setting [6], 108 % of control.

Regarding `CC1(C)CC(=O)C2(C)CCC3(CC2C1)OCCO3` (stereo unspecified), the T/C was 96 % of control under setting [7], 96 % of control under setting [8] and 96 % of control under setting [9].

Turning to `O=C(O)C1C(C(=O)O)C2C3C4C1C1C2C3C41` (stereo unspecified), the T/C under setting [7] was 108 % of control, the T/C under setting [8] was 104 % of control and the T/C under setting [9] was 98 % of control.

Consider `CN(C(=S)S(=O)(=O)C12CC3CC(CC(C3)C1)C2)c1ccccc1`, for which the T/C by setting is: (endpoint: mean survival time, dose: 3.12 mg/kg/injection, schedule: Q01DX009 (ip), vehicle: Klucel (hydroxypropylcellulose) (HPC)) 94 % of control and 96 % of control and 105 % of control; (endpoint: mean survival time, dose: 6.25 mg/kg/injection, schedule: Q01DX009 (ip), vehicle: Klucel (hydroxypropylcellulose) (HPC)) 100 % of control (2×) and 105 % of control; (endpoint: mean survival time, dose: 12.5 mg/kg/injection, schedule: Q01DX009 (ip), vehicle: Klucel (hydroxypropylcellulose) (HPC)) 100 % of control and 102 % of control and 107 % of control; (endpoint: mean survival time, dose: 25.0 mg/kg/injection, schedule: Q01DX009 (ip), vehicle: Klucel (hydroxypropylcellulose) (HPC)) 98 % of control and 102 % of control and 107 % of control; (endpoint: mean survival time, dose: 50.0 mg/kg/injection, schedule: Q01DX009 (ip), vehicle: Klucel (hydroxypropylcellulose) (HPC)) 96 % of control and 104 % of control and 105 % of control; (endpoint: mean survival time, dose: 100.0 mg/kg/injection, schedule: Q01DX009 (ip), vehicle: Klucel (hydroxypropylcellulose) (HPC)) 117 % of control and 96 % of control and 102 % of control.

Turning to `Cc1ccc(S(=O)(=O)OC2C3OCC(O3)C(O)C2O)cc1` (stereo unspecified), the T/C reads like this: under setting [7], 97 % of control; under setting [8], 94 % of control; under setting [9], 94 % of control.

In the case of `O=C1NC(=O)C(c2ccc(Cl)cc2)N1` (stereo unspecified), the T/C under setting [2] was 93 % of control; the T/C under setting [3] was 105 % of control; the T/C (endpoint: mean survival time, dose: 400.0 mg/kg/injection, schedule: Q01DX009 (ip), vehicle: saline with Tween-80) was 104 % of control.

`COC(C[P+](Cc1ccccc1)(c1ccccc1)c1ccccc1)OC`: the T/C runs as follows: (endpoint: mean survival time, dose: 18.8 mg/kg/injection, schedule: Q04DX003 (ip), vehicle: saline) 104 % of control; (endpoint: mean survival time, dose: 37.5 mg/kg/injection, schedule: Q04DX003 (ip), vehicle: saline) 103 % of control; (endpoint: mean survival time, dose: 75.0 mg/kg/injection, schedule: Q01DX001 (ip), vehicle: saline) 101 % of control; (endpoint: mean survival time, dose: 75.0 mg/kg/injection, schedule: Q04DX003 (ip), vehicle: saline) 98 % of control.

On to `Nc1nnnc2c1ncn2C1OC(CO)C(O)C1O` (stereo unspecified), for which the T/C (endpoint: mean survival time, dose: 300.0 mg/kg/injection, schedule: Q01DX001 (ip), vehicle: saline) is 121 % of control.

On to `CCC(C)N(C)/N=N/c1nc[nH]c1C(N)=O` (stereo unspecified), for which, under setting [3], the T/C was 104 % of control.
